Assay results from patent publication US10294202B2, “Pyrrolidinones as herbicides” (FMC Corporation, priority 2013, dated 2019).

Legend:
[1] = test system: crabgrass, large; experiment: Test A pre-/postemergence herbicide test; format: in vivo, Digitaria sanguinalis
Summary of the method: (§1)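 Scoring was visual, relative to untreated controls, on a 0–100 scale after about 10 greenhouse days. Preemergence treatment used a directed soil spray over seeded loam/sand; postemergence treatment targeted one- to two-leaf plants of 2–10 cm.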

[2] = test system: velvetleaf; experiment: Test A pre-/postemergence herbicide test; format: in vivo, Abutilon theophrasti
Summary of the method: as §1

[3] = test system: morningglory; experiment: Test A pre-/postemergence herbicide test; format: in vivo, Ipomoea spp.
Summary of the method: as §1

[4] = test system: chickweed; experiment: Test C postemergence herbicide test; format: in vivo, Stellaria media
Text: At the same time, plants selected from these crop and weed species and also barley (winter barley, Hordeum vulgare), […]), chickweed (common chickweed, Stellaria media), deadnettle (henbit deadnettle, Lamium amplexicaule), and canarygrass (littleseed canarygrass, Phalaris minor) were planted in pots containing Redi-Earth® planting medium (Scotts Company, 14111 Scottslawn Road, Marysville, Ohio 43041) comprising spaghnum peat moss, vermiculite, wetting agent and starter nutrients and treated with postemergence applications of test chemicals formulated in the same manner. Plants ranged in height from 2 to 18 cm (1- to 4-leaf stage) for postemergence treatments. Treated plants and controls were maintained in a greenhouse for 13 to 15 days, after which time all species were compared to controls and visually evaluated. Plant response ratings, summarized in Table C, are based on a scale of 0 to 100 where 0 is no effect and 100 is complete control. A dash (-) response means no test result.

[5] = test system: kochia; experiment: Test C pre-/postemergence herbicide test; format: in vivo, Kochia scoparia; settings: Postemergence
Summary of the method: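 Response scores range from 0, meaning no effect, to 100, meaning complete control, assigned visually by comparison with controls roughly two weeks (13 to 15 days) after spraying. Applications were made preemergence to seeded loam–sand soil and postemergence to 1- to 4-leaf plants.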

[6] = test system: ryegrass, Italian; experiment: Test A pre-/postemergence herbicide test; format: in vivo, Lolium multiflorum
Summary of the method: as §1

[7] = test system: sedge, umbrella; experiment: Test C flooded paddy test; format: in vivo, Cyperus difformis; settings: Flood
Summary of the method: (§2)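 Ratings reflect visual comparison with controls on a 0–100 scale, where 100 is complete control. Compound is dosed into standing paddy water 3 cm deep over 2-leaf-stage plants, kept in the greenhouse 13 to 15 days.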

[8] = test system: barnyardgrass; experiment: Test C flooded paddy test; format: in vivo, Echinochloa crus-galli; settings: Flood
Summary of the method: as §2

[9] = test system: ducksalad; experiment: Test C flooded paddy test; format: in vivo, Heteranthera limosa; settings: Flood
Summary of the method: as §2

[10] = Postemergence, 125 g ai/ha, 0 to 100 scale, 0 no effect, 100 complete control
[11] = Postemergence, 500 g ai/ha, 0 to 100 scale (0 no effect, 100 complete control)
[12] = Preemergence, 125 g ai/ha, visual rating on 0 to 100 scale (0 no effect, 100 complete control)
[13] = preemergence, 500 g ai/ha, 0 to 100 scale
[14] = 31 g ai/ha, scale 0 (no effect) to 100 (complete control)
[15] = 62 g ai/ha, scale 0 to 100 (0 no effect, 100 complete control)
[16] = 125 g ai/ha, scale 0 to 100 (0 no effect, 100 complete control)
[17] = 250 g ai/ha, scale 0 to 100 (0 no effect, 100 complete control)
[18] = 125 g ai/ha, visual rating, 0 to 100 scale, 0 no effect, 100 complete control, approximately 10 days, preemergence
[19] = Postemergence, 125 g ai/ha, 0 to 100 scale, 0 is no effect, 100 is complete control
[20] = preemergence, 500 g ai/ha, 0 to 100 scale, 0 is no effect and 100 is complete control
[21] = 125 g ai/ha, scale of 0 to 100 where 0 is no effect and 100 is complete control, 13 to 15 days
[22] = 250 g ai/ha, scale of 0 to 100 where 0 is no effect and 100 is complete control, 13 to 15 days
[23] = 31 g ai/ha, scale 0 to 100 (0 no effect, 100 complete control)
[24] = 62 g ai/ha, scale 0 (no effect) to 100 (complete control)
[25] = Postemergence, 125 g ai/ha, visual rating on 0 to 100 scale (0 no effect, 100 complete control), approx. 10 days
[26] = Preemergence, 125 g ai/ha, 0 to 100 scale where 0 is no effect and 100 is complete control
[27] = 62 g ai/ha, scale of 0 to 100 where 0 is no effect and 100 is complete control, 13 to 15 days
[28] = 31 g ai/ha, scale of 0 to 100 where 0 is no effect and 100 is complete control, 13 to 15 days
[29] = 8 g ai/ha, scale 0 to 100 (0 no effect, 100 complete control)
[30] = 16 g ai/ha, scale 0 to 100 (0 no effect, 100 complete control)

O=C1NCC(c2ccccc2)C1C(=O)Nc1ccccc1F (racemic) [Compound 81]
Plant response rating, Crabgrass, Large [1, 10]: 50
Plant response rating, Crabgrass, Large [1, 11]: 80
Crabgrass, Large plant response rating [1, 12]: 80
Plant response rating, Crabgrass, Large [1, 13]: 90
Plant response rating, Velvetleaf [2, 10]: 0
Plant response rating, Velvetleaf [2, 11]: 0
Velvetleaf plant response rating [2, 12]: 0
Plant response rating, Velvetleaf [2, 13]: 0
Plant response rating, Morningglory [3, 10]: 0
Plant response rating, Morningglory [3, 11]: 0
Morningglory plant response rating [3, 12]: 0
Plant response rating, Morningglory [3, 13]: 20
Plant response rating, Chickweed [4, 14]: 0
Plant response rating, Chickweed [4, 15]: 0
Plant response rating, Chickweed [4, 16]: 0
Plant response rating, Chickweed [4, 17]: 0
Plant response rating, Kochia [5, 14]: 0
Plant response rating, Kochia [5, 15]: 0
Plant response rating, Kochia [5, 16]: 0
Plant response rating, Kochia [5, 17]: 0

O=C1NCC(c2cccc(C(F)(F)F)c2)C1C(=O)Nc1ccc(F)cc1F (racemic) [Compound 207]
Plant response rating, Ryegrass, Italian [6, 18]: 20
Plant response rating, Ryegrass, Italian [6, 19]: 0
Ryegrass, Italian plant response rating (0 to 100 scale, 0 is no effect, 100 is complete control) ([6]; Postemergence, 500 g ai/ha): 50
Plant response rating, Ryegrass, Italian [6, 20]: 40
Plant response rating, Sedge, Umbrella [7, 21]: 0
Plant response rating, Sedge, Umbrella [7, 22]: 0
Plant response rating, Sedge, Umbrella ([7]; 500 g ai/ha, scale 0 to 100): 0
Plant response rating, Sedge, Umbrella ([7]; 1000 g ai/ha, scale 0 to 100): 0
Plant response rating, Barnyardgrass [8, 21]: 40
Plant response rating, Barnyardgrass [8, 22]: 60
Plant response rating, Barnyardgrass ([8]; 500 g ai/ha, scale 0 to 100): 70
Plant response rating, Barnyardgrass ([8]; 1000 g ai/ha, scale 0 to 100): 75
Plant response rating, Chickweed [4, 23]: 30
Plant response rating, Chickweed [4, 24]: 50
Plant response rating, Chickweed [4, 16]: 60
Plant response rating, Chickweed [4, 17]: 90
Plant response rating, Ducksalad [9, 21]: 60
Plant response rating, Ducksalad [9, 22]: 75
Plant response rating, Ducksalad ([9]; 500 g ai/ha, scale 0 to 100): 100
Plant response rating, Ducksalad ([9]; 1000 g ai/ha, scale 0 to 100): 80
Plant response rating, Kochia [5, 23]: 0
Plant response rating, Kochia [5, 24]: 0
Plant response rating, Kochia [5, 16]: 0
Plant response rating, Kochia [5, 17]: 30

O=C1NCC(c2cccc(Cl)c2)C1C(=O)Nc1cccc(F)c1F (racemic) [Compound 275]
Plant response rating, Ryegrass, Italian [6, 25]: 30
Plant response rating, Ryegrass, Italian [6, 11]: 50
Plant response rating, Ryegrass, Italian [6, 26]: 30
Plant response rating, Ryegrass, Italian [6, 20]: 60
Plant response rating, Sedge, Umbrella [7, 27]: 0
Plant response rating, Sedge, Umbrella [7, 21]: 0
Plant response rating, Sedge, Umbrella [7, 22]: 0
Plant response rating, Sedge, Umbrella ([7]; 500 g ai/ha, scale 0 to 100): 0
Plant response rating, Barnyardgrass [8, 27]: 35
Plant response rating, Barnyardgrass [8, 21]: 45
Plant response rating, Barnyardgrass [8, 22]: 60
Plant response rating, Barnyardgrass ([8]; 500 g ai/ha, scale 0 to 100): 70
Plant response rating, Chickweed [4, 23]: 50
Plant response rating, Chickweed [4, 24]: 60
Plant response rating, Chickweed [4, 16]: 85
Plant response rating, Chickweed [4, 17]: 85
Plant response rating, Ducksalad [9, 27]: 85
Plant response rating, Ducksalad [9, 21]: 100
Plant response rating, Ducksalad [9, 22]: 100
Plant response rating, Ducksalad ([9]; 500 g ai/ha, scale 0 to 100): 100
Plant response rating, Kochia [5, 23]: 70
Plant response rating, Kochia [5, 24]: 85
Plant response rating, Kochia [5, 16]: 85
Plant response rating, Kochia [5, 17]: 85

O=C1NCC(c2cccc(OC(F)F)c2)C1C(=O)Nc1ccccc1F (centres unmarked) [Compound 223]
Plant response rating, Ryegrass, Italian [6, 18]: 30
Plant response rating, Ryegrass, Italian [6, 19]: 0
Ryegrass, Italian plant response rating (0 to 100 scale, 0 is no effect, 100 is complete control) ([6]; Postemergence, 500 g ai/ha): 40
Plant response rating, Ryegrass, Italian [6, 20]: 60
Plant response rating, Sedge, Umbrella [7, 28]: 0
Plant response rating, Sedge, Umbrella [7, 27]: 0
Plant response rating, Sedge, Umbrella [7, 21]: 0
Plant response rating, Sedge, Umbrella [7, 22]: 0
Plant response rating, Barnyardgrass [8, 28]: 0
Plant response rating, Barnyardgrass [8, 27]: 0
Plant response rating, Barnyardgrass [8, 21]: 0
Plant response rating, Barnyardgrass [8, 22]: 0
Plant response rating, Chickweed [4, 23]: 40
Plant response rating, Chickweed [4, 24]: 45
Plant response rating, Chickweed [4, 16]: 50
Plant response rating, Chickweed [4, 17]: 80
Plant response rating, Ducksalad [9, 28]: 30
Plant response rating, Ducksalad [9, 27]: 50
Plant response rating, Ducksalad [9, 21]: 65
Plant response rating, Ducksalad [9, 22]: 95
Plant response rating, Kochia [5, 23]: 0
Plant response rating, Kochia [5, 24]: 5
Plant response rating, Kochia [5, 16]: 30
Plant response rating, Kochia [5, 17]: 60

O=C1NCC(c2ccc(C(F)(F)F)cc2)C1C(=O)Nc1ccc(F)c(F)c1F (centres unmarked) [Compound 232]
Plant response rating, Ryegrass, Italian [6, 18]: 40
Plant response rating, Ryegrass, Italian [6, 19]: 40
Ryegrass, Italian plant response rating (0 to 100 scale, 0 is no effect, 100 is complete control) ([6]; Postemergence, 500 g ai/ha): 50
Plant response rating, Ryegrass, Italian [6, 20]: 80
Plant response rating, Sedge, Umbrella [7, 28]: 0
Plant response rating, Sedge, Umbrella [7, 27]: 0
Plant response rating, Sedge, Umbrella [7, 21]: 0
Plant response rating, Sedge, Umbrella [7, 22]: 0
Plant response rating, Barnyardgrass [8, 28]: 0
Plant response rating, Barnyardgrass [8, 27]: 30
Plant response rating, Barnyardgrass [8, 21]: 40
Plant response rating, Barnyardgrass [8, 22]: 60
Plant response rating, Chickweed [4, 23]: 70
Plant response rating, Chickweed [4, 24]: 85
Plant response rating, Chickweed [4, 16]: 85
Plant response rating, Chickweed [4, 17]: 85
Plant response rating, Ducksalad [9, 28]: 50
Plant response rating, Ducksalad [9, 27]: 75
Plant response rating, Ducksalad [9, 21]: 75
Plant response rating, Ducksalad [9, 22]: 95
Plant response rating, Kochia [5, 23]: 60
Plant response rating, Kochia [5, 24]: 70
Plant response rating, Kochia [5, 16]: 70
Plant response rating, Kochia [5, 17]: 75

CN1CC(c2ccc(F)cc2)C(C(=O)Nc2cccc(F)c2F)C1=O (centres unmarked) [Compound 271]
Plant response rating, Ryegrass, Italian [6, 25]: 0
Plant response rating, Ryegrass, Italian [6, 11]: 40
Plant response rating, Ryegrass, Italian [6, 26]: 0
Plant response rating, Ryegrass, Italian [6, 20]: 30
Plant response rating, Sedge, Umbrella [7, 21]: 0
Plant response rating, Sedge, Umbrella [7, 22]: 0
Plant response rating, Sedge, Umbrella ([7]; 500 g ai/ha, scale 0 to 100): 0
Plant response rating, Sedge, Umbrella ([7]; 1000 g ai/ha, scale 0 to 100): 0
Plant response rating, Barnyardgrass [8, 21]: 40
Plant response rating, Barnyardgrass [8, 22]: 45
Plant response rating, Barnyardgrass ([8]; 500 g ai/ha, scale 0 to 100): 75
Plant response rating, Barnyardgrass ([8]; 1000 g ai/ha, scale 0 to 100): 80
Plant response rating, Chickweed [4, 29]: 0
Plant response rating, Chickweed [4, 30]: 5
Plant response rating, Chickweed [4, 23]: 5
Plant response rating, Chickweed [4, 24]: 50
Plant response rating, Ducksalad [9, 21]: 70
Plant response rating, Ducksalad [9, 22]: 100
Plant response rating, Ducksalad ([9]; 500 g ai/ha, scale 0 to 100): 100
Plant response rating, Ducksalad ([9]; 1000 g ai/ha, scale 0 to 100): 100
Plant response rating, Kochia [5, 29]: 0
Plant response rating, Kochia [5, 30]: 0
Plant response rating, Kochia [5, 23]: 0
Plant response rating, Kochia [5, 24]: 10
